Here are results for 8 molecules from US20220401514A1, “ANTIMICROBIAL, BACTERIOPHAGE-DERIVED POLYPEPTIDES AND THEIR USE AGAINST GRAM-NEGATIVE AND ACID-FAST BACTERIA” (CONTRAFECT CORPORATION, priority 2019, published 2022).

Where only a bound is given, the exact number is not on record here.

Test [1] relates to P. aeruginosa strain CFS-1292. Nature of the test: Checkerboard assay (FICI) with antibiotics, P. aeruginosa. As to conditions: for Antibiotic FIC: P. aeruginosa CFS-1292; for Antibiotic MIC in checkerboard: P. aeruginosa CFS-1292, CAA + […] human serum. In kind it is cell-based, Pseudomonas aeruginosa. Here is the method: Any known method to assess MIC may be used.
Checkerboards are constructed by first preparing columns of e.g., a 96-well polypropylene microtiter plate, wherein each well has the same amount of antibiotic diluted 2-fold along the horizontal axis. […] Bacteria are added to the drug combinations at concentrations of 1×10^5 […] in CAA, for example, with or without human serum or pulmonary surfactant. […] Summation fractional inhibitory concentrations (ΣFICs) are calculated for each drug and the minimum ΣFIC value (ΣFICmin) is used to determine the effect of the Chp peptide/antibiotic combination.
(§1) Checkerboard assays. […] Checkerboards were constructed by first preparing columns of a 96-well polypropylene microtiter plate, in which each well had the same amount of antibiotic diluted 2-fold along the horizontal axis. […] Summation fractional inhibitory concentration index (FICIs) were calculated for each drug and the minimum FICI was used to determine synergy. FICIs were calculated as follows: FICI=FIC A+FIC B, where FIC A is the MIC of each antibiotic in the combination/MIC of the each antibiotic alone, and FIC B is the MIC of each Chp peptide in the combination/MIC of each Chp peptide alone. The combination is considered synergistic when the FICI is ≤0.5, strongly additive when the FICI is >0.5 to <1, additive with the FICI is 1-<2, and antagonistic when the FICI is ≥2.
In the checkerboard assay, fractional inhibitory concentration index (FICI) values are calculated.

The subject of test [2] is Acinetobacter baumannii strain 30. As to the kind of experiment: Checkerboard assay (FICI) with antibiotics, A. baumannii. The settings on record: checkerboard. The test is classed as cell-based. Here is the method:
as §1
The results are shown below in Tables 22-27.

The test system of test [3] is Klebsiella pneumoniae strain 1139. As to the kind of experiment: Checkerboard assay (FICI) with antibiotics, K. pneumoniae. The test is classed as cell-based. Here is the method: as §1
Test [4] has as its system carbapenem-resistant P. aeruginosa clinical isolate CFS-1292. Nature of the test: MIC by modified CLSI broth microdilution against P. aeruginosa CFS-1292 (CAA, CAA + human serum). The test is classed as cell-based, Pseudomonas aeruginosa. The settings on record: for MIC (μg/mL) against CFS-1292 in 100% CAA (1st run/2nd run): 1st run or single value. (Dilution methods test growth across graded concentrations, often in twofold steps.)

The next test concerns M. smegmatis. Nature of the test: 45 hr MIC against M. smegmatis (NTM), Mueller Hinton broth. The test is classed as cell-based, Mycobacterium smegmatis. As to conditions: M. smegmatis MC^2 155, Run #1.
Where [5] appears, read: checkerboard, in combination with Chp4-M1.
The mark [6] stands for this setting: checkerboard, in combination with Chp6-M1.
Where [7] appears, read: checkerboard, in combination with Chp10-M1.
Setting [8] is: checkerboard, in combination with Unp2-M1.

On to `NCC[C@H](O)C(=O)N[C@@H]1C[C@H](N)[C@@H](O[C@H]2O[C@H](CN)[C@@H](O)[C@H](O)[C@H]2O)[C@H](O)[C@H]1O[C@H]1O[C@H](CO)[C@@H](O)[C@H](N)[C@H]1O` [Amikacin], for which the “Antibiotic FIC” value in test [1] (combined with Chp2-M1) stood at 0.25; in test [1] (combined with Chp2) it was 0.25; in test [1] (combined with Chp4-M1), 0.0625; in test [1] (combined with Chp6-M1), 0.25; in test [1] (combined with Chp10-M1) it was 0.125; in test [1] (combined with Unp2-M1), 0.25. Moreover, the “Antibiotic FIC” value came to 0.25 in test [2] (in combination with Chp2); 0.5 in test [2] (in combination with Chp2-M1); 0.5 in test [2] (in combination with Chp4-M1); 0.5 in test [2] (in combination with Chp6-M1); 0.5 in test [2] (in combination with Chp10-M1); 0.5 in test [2] (in combination with Unp2-M1). Further, the “Antibiotic MIC in checkerboard” value stood at 0.5 µg/mL in test [1] (combined with Chp2-M1); 0.5 µg/mL in test [1] (combined with Chp2); 0.5 µg/mL in test [1] (combined with Chp6-M1); 0.25 µg/mL in test [1] (combined with Chp10-M1); 0.5 µg/mL in test [1] (combined with Unp2-M1).
With `CC[C@H]1OC(=O)[C@H](C)[C@@H](O[C@H]2C[C@@](C)(OC)[C@@H](O)[C@H](C)O2)[C@H](C)[C@@H](O[C@@H]2O[C@H](C)C[C@H](N(C)C)[C@H]2O)[C@](C)(O)C[C@@H](C)CN(C)[C@H](C)[C@@H](O)[C@]1(C)O` [Azithromycin], the “Antibiotic FIC” value in test [3] (setting [5]) is 0.25; in test [3] (setting [6]), 0.5; in test [3] (combined with Chp2-M1), 0.25; in test [1] (combined with Chp2) it was 0.25; in test [1] (combined with Chp4-M1) it was 0.25; in test [1] (combined with Chp6-M1) it was 0.25. Besides, the “Antibiotic FIC” value in test [2] (in combination with Chp2) is listed as 0.5; in test [2] (in combination with Chp2-M1) it was 0.25; in test [2] (in combination with Chp4-M1), 0.25; in test [2] (in combination with Chp6-M1), 0.25; in test [2] (in combination with Chp10-M1) it was 0.5; in test [2] (in combination with Unp2-M1), 0.5. Moreover, the “Antibiotic MIC” value turned out to be 1 µg/mL in test [3] (setting [5]); 1 µg/mL in test [3] (setting [6]); 1 µg/mL in test [3] (setting [7]); 1 µg/mL in test [3] (setting [8]); 0.5 µg/mL in test [2] (in combination with Chp2); 0.5 µg/mL in test [2] (in combination with Chp2-M1). Besides, the “Antibiotic MIC” value in test [2] (in combination with Chp4-M1), in test [2] (in combination with Chp6-M1), in test [2] (in combination with Chp10-M1) and in test [2] (in combination with Unp2-M1) was 0.5 µg/mL in each case. The “Antibiotic MIC in checkerboard” value in test [3] (combined with Chp2) and in test [3] (combined with Chp2-M1) was 1 µg/mL each time.
As to `C[C@H]1[C@H](NC(=O)/C(=N\OC(C)(C)C(=O)O)c2csc(N)n2)C(=O)N1S(=O)(=O)O` [Aztreonam], the “Antibiotic FIC” value in test [3] (setting [5]) is on record as 0.5; in test [3] (setting [6]), 0.25; in test [3] (setting [7]), 0.25; in test [3] (setting [8]), 0.007812; in test [3] (combined with Chp2), 0.5; in test [3] (combined with Chp2-M1), 0.5. The “Antibiotic FIC” value in test [1] (combined with Chp2-M1) came to 0.5; in test [1] (combined with Chp2), 0.25; in test [1] (combined with Chp4-M1), 0.25; in test [1] (combined with Chp6-M1), 0.25; in test [1] (combined with Chp10-M1), 0.25; in test [2] (in combination with Chp2), 0.25. In addition, the “Antibiotic FIC” value in test [2] (in combination with Chp2-M1), in test [2] (in combination with Chp4-M1), in test [2] (in combination with Chp6-M1), in test [2] (in combination with Chp10-M1) and in test [2] (in combination with Unp2-M1) was 0.25 in each case. Moreover, the “Antibiotic MIC” value in test [3] (setting [5]) was found to be 0.007812 µg/mL; in test [3] (setting [6]), 0.007812 µg/mL; in test [3] (setting [7]), 0.007812 µg/mL; in test [3] (setting [8]), 0.007812 µg/mL; in test [2] (in combination with Chp2), 8 µg/mL; in test [2] (in combination with Chp2-M1), 8 µg/mL. For the same molecule, the “Antibiotic MIC” value in test [2] (in combination with Chp4-M1) stood at 16 µg/mL; in test [2] (in combination with Chp6-M1), 8 µg/mL; in test [2] (in combination with Chp10-M1), 8 µg/mL; in test [2] (in combination with Unp2-M1), 16 µg/mL. For the same molecule, the “Antibiotic MIC in checkerboard” value in test [3] (combined with Chp2) and in test [3] (combined with Chp2-M1) was 0.007812 µg/mL throughout.
Take `C[C@H]1COc2c(N3CCN(C)CC3)c(F)cc3c(=O)c(C(=O)O)cn1c23` [Levofloxacin]: the “Antibiotic FIC” value in test [3] (setting [5]) came out at 0.25; in test [3] (setting [6]) it was 0.25; in test [3] (setting [7]), 0.125; in test [3] (setting [8]), 0.01562; in test [3] (combined with Chp2), 0.25; in test [3] (combined with Chp2-M1), 0.25. Moreover, the “Antibiotic FIC” value in test [1] (combined with Chp2-M1) is 0.25; in test [1] (combined with Chp2), 0.25; in test [1] (combined with Chp4-M1) it was 0.5; in test [1] (combined with Chp6-M1), 0.25; in test [1] (combined with Chp10-M1) it was 0.25; in test [1] (combined with Unp2-M1), 0.25. In addition, the “Antibiotic FIC” value in test [2] (in combination with Chp2), in test [2] (in combination with Chp2-M1), in test [2] (in combination with Chp4-M1), in test [2] (in combination with Chp6-M1), in test [2] (in combination with Chp10-M1) and in test [2] (in combination with Unp2-M1) was 0.25 each time. Further, the “Antibiotic MIC” value in test [3] (setting [5]) stood at 0.007812 µg/mL; in test [3] (setting [6]), 0.007812 µg/mL; in test [3] (setting [7]), 0.007812 µg/mL; in test [3] (setting [8]), 0.01562 µg/mL. In addition, the “Antibiotic MIC in checkerboard” value in test [3] (combined with Chp2) and in test [3] (combined with Chp2-M1) was 0.007812 µg/mL each time.
With `CCN1CCN(C(=O)N[C@@H](C(=O)N[C@@H]2C(=O)N3[C@@H]2SC(C)(C)[C@@H]3C(=O)O)c2ccccc2)C(=O)C1=O` [Piperacillin], the “Antibiotic FIC” value is 0.125 in test [1] (combined with Chp2-M1); 0.5 in test [1] (combined with Chp2); 0.5 in test [1] (combined with Chp4-M1); 0.25 in test [1] (combined with Chp6-M1); 0.25 in test [1] (combined with Chp10-M1); 0.25 in test [1] (combined with Unp2-M1). The “Antibiotic FIC” value in test [2] (in combination with Chp2) is 0.25; in test [2] (in combination with Chp2-M1), 0.25; in test [2] (in combination with Chp4-M1), 0.25; in test [2] (in combination with Chp6-M1), 0.5; in test [2] (in combination with Chp10-M1) it was 0.25; in test [2] (in combination with Unp2-M1), 0.25. Moreover, the “Antibiotic MIC in checkerboard” value in test [1] (combined with Chp2-M1) was determined as 1 µg/mL; in test [1] (combined with Chp2) it was 4 µg/mL; in test [1] (combined with Chp4-M1) it was 8 µg/mL; in test [1] (combined with Chp6-M1) it was 2 µg/mL; in test [1] (combined with Chp10-M1) it was 2 µg/mL; in test [1] (combined with Unp2-M1) it was 2 µg/mL. For the same molecule, the “Antibiotic MIC” value in test [2] (in combination with Chp2) amounted to 8 µg/mL; in test [2] (in combination with Chp2-M1), 8 µg/mL; in test [2] (in combination with Chp4-M1), 8 µg/mL; in test [2] (in combination with Chp6-M1), 16 µg/mL; in test [2] (in combination with Chp10-M1), 4 µg/mL; in test [2] (in combination with Unp2-M1), 8 µg/mL.
For Gentamicin, the “Antibiotic FIC” value in test [1] (combined with Chp2) is listed as 0.5; in test [1] (combined with Unp2-M1), 0.25; in test [2] (in combination with Chp2) it was 0.25; in test [2] (in combination with Chp2-M1) it was 0.5; in test [2] (in combination with Chp4-M1) it was 0.5; in test [2] (in combination with Chp6-M1), 0.5. In addition, the entries for the “Antibiotic FIC” value in test [2] (in combination with Chp10-M1) and in test [2] (in combination with Unp2-M1) were 0.01562 and 0.5, respectively. Besides, the “Antibiotic MIC” value in test [2] (in combination with Chp2) was 0.03125 µg/mL; in test [2] (in combination with Chp2-M1), 0.03125 µg/mL; in test [2] (in combination with Chp4-M1), 0.03125 µg/mL; in test [2] (in combination with Chp6-M1) it was 0.03125 µg/mL; in test [2] (in combination with Chp10-M1) it was 0.0009766 µg/mL; in test [2] (in combination with Unp2-M1) it was 0.03125 µg/mL.
Regarding “MKKRTKALLPYAVFIILSFQLTLLTALFMYYHYTF [Lvp2]”, in test [4], the “MIC (μg/mL) against CFS-1292 in 100% CAA (1st run/2nd run)” value was determined as 32 µg/mL and the “MIC (μg/mL) against CFS-1292 in CAA + […] human serum” value came out at 8 µg/mL.
“MRKKMHKSLDKRVFNRTAKKSKKINVNPVVYRGGIRL [CDL907]”: in test [4], the “MIC (μg/mL) against CFS-1292 in 100% CAA (1st run/2nd run)” value was 8 µg/mL and the “MIC (μg/mL) against CFS-1292 in CAA + […] human serum” value stood at 0.5 µg/mL. The “45 hr MIC” value in the test with M. smegmatis is greater than 128 µg/mL.
